The record followed here is patent US11427548B2 (Arvinas Operations, Inc., priority 2015, dated 2022).

SMILES strings stand for the structures. Where two headings read alike, the source gives them in different places.

This assay addresses T1, Androgen Receptor (Homo sapiens, UniProt P10275).
T1 construct: endogenous in cells; host or cells: VCaP cells
T1 sequence (P10275 1-920): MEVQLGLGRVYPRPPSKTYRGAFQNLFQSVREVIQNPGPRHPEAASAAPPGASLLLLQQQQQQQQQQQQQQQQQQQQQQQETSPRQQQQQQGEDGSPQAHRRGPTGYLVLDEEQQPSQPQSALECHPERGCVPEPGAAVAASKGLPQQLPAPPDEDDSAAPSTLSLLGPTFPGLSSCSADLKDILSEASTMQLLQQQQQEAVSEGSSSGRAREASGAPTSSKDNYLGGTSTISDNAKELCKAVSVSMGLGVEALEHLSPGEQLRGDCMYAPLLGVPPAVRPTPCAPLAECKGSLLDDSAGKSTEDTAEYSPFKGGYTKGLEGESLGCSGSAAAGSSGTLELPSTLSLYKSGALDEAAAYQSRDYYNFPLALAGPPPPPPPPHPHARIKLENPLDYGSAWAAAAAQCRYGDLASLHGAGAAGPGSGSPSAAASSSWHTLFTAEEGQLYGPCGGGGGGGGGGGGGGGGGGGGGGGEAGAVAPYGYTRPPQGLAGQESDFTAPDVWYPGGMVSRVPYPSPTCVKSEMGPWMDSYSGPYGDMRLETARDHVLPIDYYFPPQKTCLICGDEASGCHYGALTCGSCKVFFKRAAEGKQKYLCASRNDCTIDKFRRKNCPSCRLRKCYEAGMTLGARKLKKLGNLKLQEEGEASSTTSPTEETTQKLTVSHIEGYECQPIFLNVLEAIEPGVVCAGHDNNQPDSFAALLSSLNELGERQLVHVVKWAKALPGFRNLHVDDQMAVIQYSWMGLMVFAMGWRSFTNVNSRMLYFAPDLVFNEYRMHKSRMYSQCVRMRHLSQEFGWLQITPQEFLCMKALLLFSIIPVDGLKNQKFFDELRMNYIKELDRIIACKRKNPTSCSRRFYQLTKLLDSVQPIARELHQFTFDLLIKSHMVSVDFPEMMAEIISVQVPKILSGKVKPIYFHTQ
The experiment in a line: Androgen Receptor ELISA assay (PathScan AR ELISA) in VCaP cells: AR degradation, Dmax and DC50. It counts as cell-based. Summed up: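 VCaP cells in phenol red-free RPMI with 5% charcoal-stripped FBS were grown at least 3 days, then given compound as 7 half-log doses in 0.1% DMSO with 0.1 nM R1881 for 24 h. Lysates went into a sandwich AR ELISA with TMB read at 450 nm.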
A general note: An ELISA detects its analyte on a solid surface through an enzyme-linked reagent.

Setting [1] is: read-out: VCaP DC50; VCaP cells; Table 36.
[2] abbreviates: VCaP cells; Table 36; read-out: VCaP DC50.
Where [3] appears, read: VCaP, read-out: VCaP Dmax (%), VCaP cells; Table 36.
[4] abbreviates: VCaP, VCaP cells; Table 36; read-out: VCaP Dmax (%).

`Cc1ncsc1-c1ccc([C@H](C)NC(=O)[C@@H]2C[C@@H](O)CN2C(=O)[C@@H](C(C)C)n2cc(Oc3ccc(OC4CCC(Oc5ccc(N6C(=S)N(c7ccc(C#N)c(C(F)(F)F)c7)C(=O)C6(C)C)cc5)CC4)nc3)cn2)cc1` (stereo partly drawn) [Example 628, (2S,4R)-1-((R)-2-(4-((6-((4-(4-(3-(4-cyano-3-(trifluoromethyl)phenyl)-5,5-dimethyl-4-oxo-2-thioxoimidazolidin-1-yl)phenoxy)cyclohexyl)oxy)pyridin-3-yl)oxy)-1H-pyrazol-1-yl)-3-methylbutanoyl)-4-hydroxy-N-((S)-1-(4-(4-methylthiazol-5-yl)phenyl)ethyl)pyrrolidine-2-carboxamide]: for the setting “VCaP, read-out: VCaP Dmax (%)”, the Dmax (commonly the largest share of the target that was removed) fell in the range of 26 to 50%. Under setting [1], the DC50 – broadly, the midpoint of the concentration-degradation curve – is over 501 nM.
For `Cc1ncsc1-c1ccc([C@H](C)NC(=O)C2CC3CN2C(=O)C(C(C)(C)C)NC(=O)COCCCOCCC(CCOc2ccc(N4C(=O)N(c5ccc(C#N)c(C(F)(F)F)c5)C(=O)C4(C)C)cc2)OC(=O)CCCCCn2cc(nn2)CCC(=O)O3)cc1` (stereo partly drawn) [Example 629, (63R,8S,Z)-8-(tert-butyl)-19-(2-(4-(3-(4-cyano-3-(trifluoromethyl)phenyl)-5,5-dimethyl-4-oxo-2-thioxoimidazolidin-1-yl)phenoxy)ethyl)-N-((S)-1-(4-(4-methylthiazol-5-yl)phenyl)ethyl)-4,7,10,21-tetraoxo-11H-5,12,16,20-tetraoxa-9-aza-1(4,1)-triazola-6(3,1)-pyrrolidineacyclohexaco-saphane-65-carboxamide] the same measures were 26 to 50% and 51 to 500 nM.
For the compound `Cc1ncsc1-c1ccc([C@H](C)NC(=O)[C@@H]2C[C@@H](O)CN2C(=O)[C@@H](NC(=O)COCCCCOc2ccc(-c3ccc(C(=O)N[C@H]4C(C)(C)[C@H](Oc5ccc(C#N)c(Cl)c5)C4(C)C)cc3)cc2)C(C)(C)C)cc1` [Example 630, (2S,4R)-1-((S)-2-(2-(4-((4′-(((1r,3r)-3-(3-chloro-4-cyanophenoxy)-2,2,4,4-tetramethylcyclobutyl)carbamoyl)-[1,1′-biphenyl]-4-yl)oxy)butoxy)acetamido)-3,3-dimethylbutanoyl)-4-hydroxy-N-((S)-1-(4-(4-methylthiazol-5-yl)phenyl)ethyl)pyrrolidine-2-carboxamide], the DC50 under setting [2] is under 50 nM. The Dmax under setting [3] was over 71%.
`Cc1nccn1-c1ccc(C(C)NC(=O)C2CC(O)CN2C(=O)C(C(C)C)n2cc(-c3ccc(OC4CCN(c5ccc(N6C(=S)N(c7ccc(C#N)c(C(F)(F)F)c7)C(=O)C6(C)C)cn5)CC4)nc3)cn2)cc1` (stereo not shown) [Example 631, 1-(2-(4-(6-((1-(5-(3-(4-cyano-3-(trifluoromethyl)phenyl)-5,5-dimethyl-4-oxo-2-thioxoimidazolidin-1-yl)pyridin-2-yl)piperidin-4-yl)oxy)pyridin-3-yl)-1H-pyrazol-1-yl)-3-methylbutanoyl)-4-hydroxy-N-(1-(4-(2-methyl-1H-imidazol-1-yl)phenyl)ethyl)pyrrolidine-2-carboxamide]: the Dmax (VCaP, read-out: VCaP Dmax (%)) is under 25%. Moreover, under setting [1], the DC50 is over 501 nM.
As to `C#CCCC(=O)OC(CCOCCCOCC(=O)N[C@H](C(=O)N1C[C@H](O)C[C@H]1C(=O)N[C@@H](C)c1ccc(-c2scnc2C)cc1)C(C)(C)C)CCOc1ccc(N2C(=S)N(c3ccc(C#N)c(C(F)(F)F)c3)C(=O)C2(C)C)cc1` (stereo partly drawn) [Example 632, 1-(4-(3-(4-cyano-3-(trifluoromethyl)phenyl)-5,5-dimethyl-4-oxo-2-thioxoimidazolidin-1-yl)phenoxy)-5-(3-(2-(((S)-1-((2S,4R)-4-hydroxy-2-(((S)-1-(4-(4-mehtylthiazol-5-yl)phenyl)ethyl)carbam-oyl)pyrrolidin-1-yl)-3,3-dimethyl-1-oxobutan-2-yl)amino)-2-oxoethoxy)propoxy)pen-tan-3-yl pent-4-ynoate], the “VCaP Dmax (%)” value (VCaP cells; Table 36) is recorded as “++ (26% ≤ Dmax ≤ 50%)”. For the same compound, the DC50 under setting [2] is over 501 nM.
As for `Cc1ncoc1C12CC(CNC(=O)[C@@H]3C[C@@H](O)CN3C(=O)C(NC(=O)COCCCOCCCOc3ccc(N4C(=O)N(c5ccc(C#N)c(C(F)(F)F)c5)C(=O)C4(C)C)cc3)C(C)(C)C)(C1)C2` (stereo partly drawn) [Example 633, (2S,4)R-1-((S)-2-(2-(3-((5-(4-(3-(4-cyano-3-(trifluoromethyl)phenyl)-5,5-dimethyl-4-oxo-2-thioxoimidazolidin-1-yl)phenoxy)pentyl)oxy)propoxy)acetamido)-3,3-dimethylbutanoyl)-4-hydroxy-N-((3-(4-methyloxazol-5-yl)bicyclo[1,.1.1]pentan-1-yl)methyl)pyrrolidine-2-carboxamide], the Dmax (VCaP, read-out: VCaP Dmax (%)) was under 25%. Under setting [1], the DC50 was over 501 nM.
On to `Cc1ncsc1-c1ccc([C@H](C)NC(=O)[C@@H]2C[C@@H](O)CN2C(=O)[C@@H](NC(=O)CO[C@H](C)CN2CCN(c3ccc(C(=O)N[C@H]4C(C)(C)[C@H](Oc5ccc(C#N)c(Cl)c5)C4(C)C)cc3)CC2)C(C)(C)C)cc1` [Example 634, (2S,4R)-1-((S)-2-(2-(((R)-1-(4-(4-(((1r,3R)-3-(3-chloro-4-cyanophenoxy)-2,2,4,4-tetramethylcyclobutyl)carbamoyl)phenyl)piper-azin-1-yl)propan-2-yl)oxy)acetamido)-3,3-dimethylbutanoyl)-4-hydroxy-N-((S)-1-(4-(4-methylthiazol-5-yl)phenyl)ethyl)pyrrolidine-2-carboxamide], for which the DC50 under setting [2] is under 50 nM. For the same compound, the Dmax under setting [4] is over 71%.
Regarding `Cc1ncsc1-c1ccc([C@H](C)NC(=O)[C@@H]2C[C@@H](O)CN2C(=O)[C@@H](NC(=O)COCCCOCCCCCOc2ccc(C(=O)N[C@H]3C(C)(C)[C@H](Oc4ccc(C#N)c(Cl)c4)C3(C)C)cc2)C(C)(C)C)cc1` [Example 635, (2S,4R)-1-((S)-2-(2-(3-((5-(4-(((1r,3r)-3-(3-chloro-4-cyanophenoxy)-2,2,4,4-tetramethylcyclobutyl)carbamoyl)phenoxy)pen-tyl)oxy)propoxy)aceta-mido)-3,3-dimethylbutanoyl)-4-hydroxy-N-((S)-1-(4-(4-methylthiazol-5-yl)phenyl)ethyl)pyrrolidine-2-carboxamide], the DC50 under setting [2] is under 50 nM. For the same compound, the maximal degradation (Dmax) under setting [3] lay within 51 to 70%.
With `Cc1ncsc1-c1ccc([C@H](C)NC(=O)[C@@H]2C[C@@H](O)CN2C(=O)[C@@H](NC(=O)COCCN2C[C@H]3C[C@@H]2CN3c2ccc(C(=O)N[C@H]3C(C)(C)[C@H](Oc4ccc(C#N)c(Cl)c4)C3(C)C)cn2)C(C)(C)C)cc1` [Example 636, N-((1r,3R)-3-(3-chloro-4-cyanophenoxy)-2,2,4,4-tetramethylcyclobutyl)-6-((1R,4R)-5-(2-(2-(((S)-1-((2S,4R)-4-hydroxy-2-(((S)-1-(4-(4-methylthiazol-5-yl)phenyl)ethyl)carbam-oyl)pyrrolidin-1-yl)-3,3-dimethyl-1-oxobutan-2-yl)amino)-2-oxoethoxy)ethyl)-2,5-diazabicyclo[2.2.1]hept-an-2-yl)nicotinamide], the Dmax (VCaP, read-out: VCaP Dmax (%)) was over 71%. The DC50 under setting [1] is under 50 nM.
The corresponding values for `Cc1ncsc1-c1ccc([C@H](C)NC(=O)[C@@H]2C[C@@H](O)CN2C(=O)[C@@H](NC(=O)COCCN2C[C@@H]3C[C@H]2CN3c2ccc(C(=O)N[C@H]3C(C)(C)[C@H](Oc4ccc(C#N)c(Cl)c4)C3(C)C)cn2)C(C)(C)C)cc1` [Example 637, N-((1r,3S)-3-(3-chloro-4-cyanophenoxy)-2,2,4,4-tetramethylcyclobutyl)-6-((1S,4S)-5-(2-(2-(((S)-1-((2S,4R)-4-hydroxy-2-(((S)-1-(4-(4-methylthiazol-5-yl)phenyl)ethyl)carbam-oyl)pyrrolidin-1-yl)-3,3-dimethyl-1-oxobutan-2-yl)amino)-2-oxoethoxy)ethyl)-2,5-diazabicyclo[2.2.1]hept-an-2-yl)nicotinamide] are over 71% and under 50 nM.
Turning to `Cc1ncsc1-c1ccc(CNC(=O)[C@@H]2C[C@@H](O)CN2C(=O)[C@@H](NC(=O)COCCN2CCN(c3ccc(C(=O)N[C@H]4C(C)(C)[C@H](Oc5ccc(C#N)c(Cl)c5)C4(C)C)cn3)CC2)C(C)(C)C)cc1` [Example 638], the DC50 under setting [2] is under 50 nM. Under setting [4], the Dmax is over 71%.
